Experimental data reported in patent US9440913B2, “Dihydroxybenzene derivatives and antiprotozoal agent comprising same as active ingredient” (NAI INC., priority 2010, dated 2016).
pIC50: −log10 of the molar value.

Legend:
[1] = molecular target: T1, recombinant Trypanosome AOX (TAO) enzyme (Trypanosoma brucei brucei, UniProt Q26710); assay: TAO enzyme inhibition (quinol oxidase activity, ubiquinol-1 substrate); assay type: biochemical, T. brucei brucei; settings: TAO-expressing E. coli membrane fraction, 25° C., ubiquinol-1, absorbance at 278 nm
T1 construct: made in house; host or cells: Escherichia coli (membrane fraction)
T1 sequence (Q26710 whole entry): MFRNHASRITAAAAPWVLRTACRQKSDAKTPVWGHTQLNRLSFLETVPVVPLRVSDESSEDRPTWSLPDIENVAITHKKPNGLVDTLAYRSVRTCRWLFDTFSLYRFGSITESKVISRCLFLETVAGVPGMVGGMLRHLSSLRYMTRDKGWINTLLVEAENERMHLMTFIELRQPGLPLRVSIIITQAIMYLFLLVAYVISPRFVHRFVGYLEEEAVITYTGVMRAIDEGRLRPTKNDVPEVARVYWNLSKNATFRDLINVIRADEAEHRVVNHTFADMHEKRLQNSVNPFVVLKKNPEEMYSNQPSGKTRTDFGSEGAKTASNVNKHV
Description: Escherichia coli membrane fractions that express TAO by a plasmid harboring TAO cDNA cloned from T. brucei brucei (Fukai, Comparative Biochemistry & Physiology, 124, 141-148, 1999) were used as a recombinant Trypanosome AOX (TAO) enzyme. 50 mM Tris-HCl (pH 7.5), TAO-expressing membrane fraction (0.35 ng), and […] of an inhibitor were mixed in a 1 mL cuvette, and the mixture was incubated at 25° C. for 4 minutes. Ubiquinol-1 as a substrate was then added to the mixture to initiated the reaction, and change in absorbance at 278 nm was monitored (Shimadzu UV-3000, molar absorption coefficient ε=15 cm^−1 mM^−1).

T. b. rhodesiense IL1501 = assay: Antiprotozoal effect, MIC measurement in HMI-9 culture; assay type: cell-based; settings: Trypanosoma brucei, RHODESIENSE, 24 h, bloodstream forms, 18 + 6 hours culture
Description: T. b. rhodesiense IL1501, the human infectious protozoan that causes acute symptoms, was used as a Trypanosomatid protozoan. The bloodstream forms of protozoan can be cultured in a HMI-9 culture medium (Hirumi, 1989). The protozoan was always cultured at a temperature of 37° C. in the presence of 5% CO2.
In a microtiter plate (96-well, FALCON 3072), HMI-9 culture medium and HMI-9 culture medium plus glycerol added to make a final concentration of 8.33 mM are separately prepared. 89 μL of the preparation are put into only the first well, and a 60 μL aliquot of each the other wells. 1 μL of a solution of AF or a AF derivative dissolved in DMSO was added to the first well, and was then suspended. A 30 μL aliquot of the suspension was then collected, was transferred to the second well, and was suspended. These operations were repeated in this order to prepare a three-fold dilution series of drug. A 40 μL aliquot of a protozoan culture was added to each well to make a final concentration of 5×10^4 cells/well (a final concentration of glycerol of 5 mM) followed by 18-hours culturing under conditions of 37° C. and 5% CO2. (For EC50 measurement, a 10 μL aliquot of Alamar Blue was added to each well), culturing was carried out under the same conditions for 6 more hours, surviving protozoans were visually observed with a microscope. The concentration at which no motile surviving protozoan was observed was defined as MIC.

[2] = molecular target: Cryptosporidium cyanide insensitive oxidase (AOX), recombinant protein (cCpAOX) (Cryptosporidium parvum, UniProt Q761U6); assay: CpAOX enzyme inhibition; assay type: biochemical
Cryptosporidium cyanide insensitive oxidase (AOX), recombinant protein (cCpAOX), sequence (Q761U6 entry or part of it): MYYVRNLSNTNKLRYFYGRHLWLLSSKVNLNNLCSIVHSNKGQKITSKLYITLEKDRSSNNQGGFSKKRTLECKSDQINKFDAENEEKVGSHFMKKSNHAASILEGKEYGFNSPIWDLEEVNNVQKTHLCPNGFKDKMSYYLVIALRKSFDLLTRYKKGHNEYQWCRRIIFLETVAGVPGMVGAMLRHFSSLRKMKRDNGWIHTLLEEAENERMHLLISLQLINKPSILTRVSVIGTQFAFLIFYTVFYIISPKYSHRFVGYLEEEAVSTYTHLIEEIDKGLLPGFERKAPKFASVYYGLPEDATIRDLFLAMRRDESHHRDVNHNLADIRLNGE
Excerpt: Cryptosporidium has found to have cyanide insensitive oxidase (AOX), and its inhibitory activity was observed using its recombinant protein (cCpAOX) produced in E. coli.

T. b. rhodesiense = assay: Treatment of mice infected with T. b. rhodesiense (cure and survival); assay type: in vivo; settings: Glycerol dose 1.25 g/kg; i.p., five doses at 6 hour interval
Description: Mice were infected with T. b. rhodesiense, a protozoan that causes acute symptoms at 1×10^3 cells/mouse, administration of medication in mice was started 24 hours after the infection, and the mice received five doses of each drug at the dosing interval of 6 hours. Mice were all infected and treated intraperitoneally (i.p). Mice that have no Trypanosomatid protozoan in the blood and survive even 60 days or more after the end of treatment were determined to be cured. Survival days represents an average survival time after treatment in mice that died from infection; therefore, survival days for the group of cured mice are not described in Table 2.

[3] = Glycerol (+), final concentration of glycerol of 5 mM

Compound	pIC50 [1]	MIC (T. b. rhodesiense IL1501; [3])	MIC (T. b. rhodesiense IL1501; Glycerol (−))	pIC50 [2]	melting point	Cured/Infected (T. b. rhodesiense)
CCCCC/C(C)=C\Cc1c(O)c(Cl)c(C)c(C=O)c1O [Compound 264-8-z, (Z)-3-Chloro-4,6-dihydroxy-2-methyl-5-(3-methyl-2-octenyl)benzaldehyde]	9.74	0.17 nM	0.25 nM	8.85	157 to 158 °C	
CC(=O)OC(C)/C(C)=C/CC/C(C)=C/Cc1c(O)c(Cl)c(C)c(C=O)c1O (centres unmarked) [Compound 277-11-OAc, (3E,7E)-9-(3-Chloro-5-formyl-2,6-dihydroxy-4-methyl)phenyl-3,7-dimethyl-3,7-nonadie2-yl acetate]	8.92	0.082 nM	2.3 nM	8.82		4/4
Cc1c(Cl)c(O)c(CCCCCCCCCC(=O)OC(C)C)c(O)c1C=O [Compound 215-13-COOiPr, Isopropyl 10-(3-chloro-2,6-dihydroxy-5-formyl-4-methylphenyl)decanoate]	9.37	0.061 nM	1.7 nM	8.66	49 °C	
CCC(=O)OCCCCCCCCc1c(O)c(Cl)c(C)c(C=O)c1O [Compound 215-12-OCOEt, 8-(3-Chloro-5-formyl-2,6-dihydroxy-4-methylphenyl)octyl propionate]	9.54			8.66	63 to 64 °C	
CCC(=O)OCCCCCCCCCc1c(O)c(Cl)c(C)c(C=O)c1O [Compound 215-13-OCOEt, 9-(3-Chloro-5-formyl-2,6-dihydroxy-4-methylphenyl)nonyl propionate]	9.70	7.1 nM	125 nM	8.68	69 to 70 °C	
CC(/C=C/C(=O)C(C)(C)C)=C\CC/C(C)=C/Cc1c(O)c(Cl)c(C)c(C=O)c1O [Compound 273-12, 3-Chloro-4,6-dihydroxy-2-methyl-5-[(2E,6E,8E)-3,7,11,11-tetramethyl-10-oxo-2,6,8-dodecatrienyl]benzaldehyde]	9.64	1.9 nM	3.7 nM	8.66		
CC(=O)OCCCCCCCCc1c(O)c(Cl)c(C)c(C=O)c1O [Compound 215-11-OAc, 8-(3-Chloro-5-formyl-2,6-dihydroxy-4-methylphenyl)octyl acetate]	9.22	7.7 nM	68 nM	8.57	68 °C	
Cc1c(Cl)c(O)c(CCCCCCC(C)C)c(O)c1C=O [Compound 279-8, 3-Chloro-4,6-dihydroxy-2-methyl-5-(7-methyloctyl)benzaldehyde]	9.66	7.3 nM	12 nM	8.68	93 to 94 °C	
Cc1c(Cl)c(O)c(CCCCCCCCOC(=O)C(C)(C)C)c(O)c1C=O [Compound 215-12-OPiv, 8-(3-Chloro-5-formyl-2,6-dihydroxy-4-methylphenyl)octyl pivalate]	9.49	0.49 nM	1.9 nM	8.57	70 to 71 °C	
Cc1c(Cl)c(O)c(CCCCCCCOC(=O)C(C)(C)C)c(O)c1C=O [Compound 215-11-OPiv, 7-(3-Chloro-5-formyl-2,6-dihydroxy-4-methylphenyl)heptyl pivalate]	9.60	0.094 nM	0.88 nM	8.85	63 to 64 °C	
C/C(=C\Cc1c(O)c(Cl)c(C)c(C=O)c1O)CC/C=C(\C)C(C)O (centres unmarked) [Compound 277-9-OH]	9.32	0.048 nM	74 nM	8.60		4/4
CC(C)=CCC/C=C/Cc1c(O)c(Cl)c(C)c(C=O)c1O [Compound 278-8, (E)-3-Chloro-4,6-dihydroxy-2-methyl-5-(7-methyl-2,6-octadienyl)benzaldehyde]	9.60	7.4 nM	14 nM	8.92		
Cc1c(Cl)c(O)c(CCCCCCCCCC(=O)O)c(O)c1C=O [Compound 215-11-COOH, 10-(3-Chloro-5-formyl-2,6-dihydroxy-4-methylphenyl)decanoic acid]	8.82	1500 nM	4000 nM	8.68	154 to 156 °C	
Cc1c(Cl)c(O)c(/C=C/CCCCCCCOC(=O)C(C)(C)C)c(O)c1C=O [Compound 200-13-OPiv, (E)-9-(3-Chloro-5-formyl-2,6-dihydroxy-4-methylphenyl)-8-nonenyl pivalate]	9.49			8.66	69 to 70 °C	
CCCCCC#CCc1c(O)c(Cl)c(C)c(C=O)c1O [Compound 284-8, 3-Chloro-4,6-dihydroxy-5-(2-octynyl)-2-methylbenzaldehyde]	9.52	9.6 nM	92 nM	8.72	135 to 136 °C	
COC(CC(=O)C(C)(C)C)/C(C)=C/CC/C(C)=C/Cc1c(O)c(Cl)c(C)c(C=O)c1O (centres unmarked) [Compound 271-12]	9.66	0.0023 nM	0.056 nM	8.80		
COC(=O)CCCCCCCCCc1c(O)c(Cl)c(C)c(C=O)c1O [Compound 215-12-COOMe, Methyl 10-(3-chloro-5-formyl-2,6-dihydroxy-4-methylphenyl)decanoate]	9.60	5.7 nM	38 nM	8.82	87 to 88 °C	
Cc1c(Cl)c(O)c(C/C=C/CCCCCOC(=O)C(C)(C)C)c(O)c1C=O [Compound 206-12-OPiv, (E)-8-(3-Chloro-5-formyl-2,6-dihydroxy-4-methylphenyl)-6-octenyl pivalate]	9.57	0.006 nM	0.024 nM	8.68		
Cc1c(Cl)c(O)c(CCCCCCCCCC(=O)OCC2COC(C)(C)O2)c(O)c1C=O (centres unmarked) [Compound 502-16-G, 2,2-Dimethyl-1,3-dioxolanee-4-methyl 10-(3-chloro-5-formyl-2,6-dihydroxy-4-methylphenyl)decanoate]	9.52	1.2 nM	12 nM	8.64	55 to 56 °C	
COC(=O)/C(C)=C/CC/C(C)=C/Cc1c(O)c(Cl)c(C)c(C=O)c1O [Compound 275-10-COOMe, Methyl (2E,6E)-8-(3-Chloro-5-formyl-2,6-dihydroxy-4-methyl)phenyl-2,6-dimethyl-2,6-octadienate]	9.42	1.1 nM	8.7 nM	8.92		
Cc1c(Cl)c(O)c(CCCCCCCC(=O)Oc2c3ccccc3cc3ccccc23)c(O)c1C=O [Compound 215-18-Anthra, 9-Anthryl 8-(3-chloro-5-formyl-2,6-dihydroxy-4-methylphenyl)octanate]	9.30	3.8 nM	6.6 nM	8.59		
Cc1c(Cl)c(O)c(CCCCCCCCCCCC(=O)OC(C)C)c(O)c1C=O [Compound 215-15-COOiPr, Isopropyl 12-(3-chloro-5-formyl-2,6-dihydroxy-4-methylphenyl)dodecanoate]	9.49			8.60	82 to 83 °C	
CC(=O)/C(C)=C/CC/C(C)=C/Cc1c(O)c(Cl)c(C)c(C=O)c1O [Compound 276-9]	8.92	0.53 nM	13 nM	8.68	119 to 120 °C	
C/C(=C\Cc1c(O)c(Cl)c(C)c(C=O)c1O)CC/C=C(\C)COC(=O)C(C)(C)C [Compound 234-12-OPiv, (2E,6E)-8-(3-Chloro-5-formyl-2,6-dihydroxy-4-methylphenyl)-2,6-dimethyl-2,6-octadienyl pivalate]	9.40	0.031 nM	0.39 nM			5/5
